From patent US9670227B2, “Thienopyrimidine derivatives, a process for their preparation and pharmaceutical compositions containing them” (LES LABORATOIRES SERVIER, priority 2013, dated 2017) come the findings set out here.

SMILES strings stand for the structures.

The target of the first assay is Mcl-1 protein (UniProtKB primary accession number: Q07820) (Homo sapiens, UniProt Q07820). As to the kind of experiment: Inhibition of Mcl-1 by fluorescence polarisation, Method 1. It counts as binding. The note with it: fluorescence polarisation test; Method 2 values are underlined in the patent (underlining not visible here); read-out: IC50 (M) Mcl-1 FP. The method in brief: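 An 11-point DMSO dilution of compound is mixed with buffer (10 mM HEPES, 150 mM NaCl, 0.05% Tween 20, pH 7.4) carrying 1 nM fluorescein-labelled ligand and 5 nM Mcl-1, final concentrations. Displacement is monitored by fluorescence polarisation.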
Mcl-1 protein, sequence (Q07820 whole entry): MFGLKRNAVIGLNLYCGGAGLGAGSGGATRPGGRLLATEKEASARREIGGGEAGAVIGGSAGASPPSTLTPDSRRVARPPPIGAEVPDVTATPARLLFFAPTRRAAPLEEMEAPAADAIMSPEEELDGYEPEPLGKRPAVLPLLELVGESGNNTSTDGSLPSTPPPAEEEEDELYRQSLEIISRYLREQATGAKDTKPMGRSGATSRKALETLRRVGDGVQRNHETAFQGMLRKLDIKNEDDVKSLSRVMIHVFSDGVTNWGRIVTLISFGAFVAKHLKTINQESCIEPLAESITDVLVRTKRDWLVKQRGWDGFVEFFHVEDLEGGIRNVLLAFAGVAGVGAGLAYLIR
In general, IC50 refers to the midpoint of a concentration-inhibition curve. Regarding `COc1nccc(COc2ccccc2CC(Oc2ncnc3sc(-c4ccc(F)cc4)c(-c4ccc(OCCN5CCN(C)CC5)c(Cl)c4C)c23)C(=O)O)n1` [Example 54, (2R)-2-{[(5Sa)-5-{3-chloro-2-methyl-4-[2-(4-methylpiperazin-1-yl)ethoxy]phenyl}-6-(4-fluorophenyl)thieno[2,3-d]pyrimidin-4-yl]oxy}-3-{2-[(2-methoxypyrimidin-4-yl)methoxy]phenyl}propanoic acid], the IC50 stood at 5.7e-09 M.
Still for that read-out and setting: the result for `COc1ccccc1CC(Oc1ncnc2sc(-c3ccco3)c(-c3ccc(OC4CCCCN(C)C4)c(Cl)c3C)c12)C(=O)O` (single isomer, unassigned) [Example 300, (2R)-2-{[(5Sa)-5-{3-chloro-2-methyl-4-[(3R or S)-(1-methylazepan-3-yl)oxy]phenyl}-6-(furan-2-yl)thieno[2,3-d]pyrimidin-4-yl]oxy}-3-(2-methoxyphenyl)propanoic acid] reads 3.7e-08 M; that for `Cc1c(-c2c(-c3ccc(F)cc3)sc3ncnc(OC(Cc4ccccc4OCc4cnccn4)C(=O)O)c23)ccc(OCCN2CCOCC2)c1Cl` [Example 148, (2R)-2-{[(5Sa)-5-{3-chloro-2-methyl-4-[2-(morpholin-4-yl)ethoxy]phenyl}-6-(4-fluorophenyl)thieno[2,3-d]pyrimidin-4-yl]oxy}-3-[2-(pyrazin-2-ylmethoxy)phenyl]propanoic acid], 3.1e-08 M.
Take `Cc1c(-c2c(-c3ccco3)sc3ncnc(OC(Cc4ccccc4OCc4cncn4C)C(=O)O)c23)ccc(OCCN2CCN(C)CC2)c1Cl` [Example 276, (2R)-2-{[(5Sa)-5-{3-chloro-2-methyl-4-[2-(4-methylpiperazin-1-yl)ethoxy]phenyl}-6-(furan-2-yl)thieno[2,3-d]pyrimidin-4-yl]oxy}-3-{2-[(1-methyl-1H-imidazol-5-yl)methoxy]phenyl}propanoic acid]: the half-maximal inhibitory concentration (IC50) turned out to be 6.2e-09 M.
Regarding `Cc1c(-c2c(-c3ccc(F)o3)sc3ncnc(OC(Cc4ccccc4OCc4ccnc(-c5ccncc5)n4)C(=O)O)c23)ccc(OCCN2CCN(C)CC2)c1Cl` [Example 172, (2R)-2-{[(5Sa)-5-{3-chloro-2-methyl-4-[2-(4-methylpiperazin-1-yl)ethoxy]phenyl}-6-(5-fluorofuran-2-yl)thieno[2,3-d]pyrimidin-4-yl]oxy}-3-(2-{[2-(pyridin-4-yl)pyrimidin-4-yl]methoxy}phenyl)propanoic acid], the IC50 was determined as 3e-09 M.
Still for that read-out and setting: the same measure for `CCc1sc2ncnc(OC(Cc3ccccc3)C(=O)O)c2c1-c1ccc(OCC(=O)N2CCN(C)CC2)c(Cl)c1C` [Example 392, (2R)-2-[((5Sa)-5-{3-chloro-2-methyl-4-[2-(4-methylpiperazin-1-yl)-2-oxoethoxy]phenyl}-6-ethylthieno[2,3-d]pyrimidin-4-yl)oxy]-3-phenylpropanoic acid]: 3e-08 M; for `Cc1c(-c2c(-c3ccc(F)cc3)sc3ncnc(OC(Cc4ccccc4OCc4ccnc(-c5ccccn5)n4)C(=O)O)c23)ccc(OCCN2CCN(C)CC2)c1Cl` [Example 31, (2R)-2-{[(5Sa)-5-{3-chloro-2-methyl-4-[2-(4-methylpiperazin-1-yl)ethoxy]phenyl}-6-(4-fluorophenyl)thieno[2,3-d]pyrimidin-4-yl]oxy}-3-(2-{[2-(pyridin-2-yl)pyrimidin-4-yl]methoxy}phenyl)propanoic acid]: 5.6e-09 M.

The same assay, now with this note: fluorescence polarisation; Method 1, or Method 2; read-out: IC50 (M) Mcl-1 FP.
Turning to `CCc1sc2ncnc(OC(Cc3ccccc3)C(=O)O)c2c1-c1ccc(OCCCO)c(Cl)c1C` [Example 405, (2R)-2-({(5Sa)-5-[3-chloro-4-(3-hydroxypropoxy)-2-methylphenyl]-6-ethylthieno[2,3-d]pyrimidin-4-yl}oxy)-3-phenylpropanoic acid], the IC50 turned out to be 7.4e-09 M.
Same read-out and setting: the same measure for `CCCCn1nccc1COc1ccccc1CC(Oc1ncnc2sc(-c3ccc(N)nc3)c(-c3ccc(OCCN4CCN(C)CC4)c(Cl)c3C)c12)C(=O)O` [Example 618, (2R)-2-{[6-(6-aminopyridin-3-yl)-(5Sa)-5-{3-chloro-2-methyl-4-[2-(4-methylpiperazin-1-yl)ethoxy]phenyl}thieno[2,3-d]pyrimidin-4-yl]oxy}-3-{2-[(1-butyl-1H-pyrazol-5-yl)methoxy]phenyl}propanoic acid]: 5.6e-09 M.
On to `COc1ccccc1-c1nccc(COc2ccccc2CC(Oc2ncnc3sc(-c4ccc(OCCN5CCOCC5)cc4)c(-c4ccc(OCCN5CCN(C)CC5)c(Cl)c4C)c23)C(=O)O)n1` (single isomer, unassigned) [Example 763], for which the IC50 worked out at 9.05e-08 M.
`COc1ccccc1Cn1ccc(COc2ccccc2CC(Oc2ncnc3sc(-c4ccc(F)cc4)c(-c4ccc(OCCN5CCN(C)CC5)c(Cl)c4C)c23)C(=O)O)n1` [Example 740, (2R)-2-{[(5Sa)-5-{3-chloro-2-methyl-4-[2-(4-methylpiperazin-1-yl)ethoxy]phenyl}-6-(4-fluorophenyl)thieno[2,3-d]pyrimidin-4-yl]oxy}-3-(2-{[1-(2-methoxybenzyl)-1H-pyrazol-3-yl]methoxy}phenyl)propanoic acid]: the IC50 was determined as 5.04e-09 M.
Still for that read-out and setting: the result for `CCc1sc2ncnc(OC(Cc3ccccc3)C(=O)O)c2c1-c1cc([N+](=O)[O-])c(O)c(Cl)c1C` [Example 426, (2R)-2-{[(5Sa)-5-(3-chloro-4-hydroxy-2-methyl-5-nitrophenyl)-6-ethylthieno[2,3-d]pyrimidin-4-yl]oxy}-3-phenylpropanoic acid] reads 4.6e-09 M.
On the same count and under the same terms, the same measure for `COC(=O)c1ccc(-c2sc3ncnc(OC(Cc4ccccc4OC)C(=O)O)c3c2-c2ccc(OCCN3CCN(C)CC3)c(Cl)c2C)o1` [Example 583, (2R)-2-[((5Sa)-5-{3-chloro-2-methyl-4-[2-(4-methylpiperazin-1-yl)ethoxy]phenyl}-6-[5-(methoxycarbonyl)furan-2-yl]thieno[2,3-d]pyrimidin-4-yl)oxy]-3-(2-methoxyphenyl)propanoic acid]: 1.1e-07 M; for `COc1ccc(-c2c(-c3ccc(F)cc3)sc3ncnc(OC(Cc4ccccc4OCCN4CCN(C)CC4)C(=O)O)c23)c(C)c1Cl` [Example 661, (2R)-2-{[(5Sa)-5-(3-chloro-4-methoxy-2-methylphenyl)-6-(4-fluorophenyl)thieno[2,3-d]pyrimidin-4-yl]oxy}-3-{2-[2-(4-methylpiperazin-1-yl)ethoxy]phenyl}propanoic acid]: 1e-07 M.
On the same count and under the same terms, the result for `COc1ccccc1CC(Oc1ncnc2sc(C3CCCO3)c(-c3ccc(OCCN4CCN(C)CC4)c(Cl)c3C)c12)C(=O)O` (single isomer, unassigned) [Example 590, (2R)-2-{[(5Sa)-5-{3-chloro-2-methyl-4-[2-(4-methylpiperazin-1-yl)ethoxy]phenyl}-6-((2S or R)-tetrahydrofuran-2-yl)thieno[2,3-d]pyrimidin-4-yl]oxy}-3-(2-methoxyphenyl)propanoic acid] reads 8.4e-08 M.
`COc1ccccc1-c1nccc(COc2ccccc2CC(Oc2ncnc3sc(-c4ccc(OCCc5ccccc5)cc4)c(-c4ccc(OCCN5CCN(C)CC5)c(Cl)c4C)c23)C(=O)O)n1` (single isomer, unassigned) [Example 765]: the IC50 was determined as 6.58e-07 M.
On the same count and under the same terms, the result for `CC#Cc1sc2ncnc(OC(Cc3ccccc3OC)C(=O)O)c2c1-c1ccc(OCCN2CCOCC2)c(Cl)c1C` [Example 685, (2R)-2-{[(5Sa)-5-{3-chloro-2-methyl-4-[2-(morpholin-4-yl)ethoxy]phenyl}-6-(prop-1-yn-1-yl)thieno[2,3-d]pyrimidin-4-yl]oxy}-3-(2-methoxyphenyl)propanoic acid] reads 1.2e-08 M; that for `Cc1c(-c2c(-c3cc4ccccc4o3)sc3ncnc(OC(Cc4ccccc4)C(=O)O)c23)ccc(OCCN2CCN(C)CC2)c1Cl` [Example 496, (2R)-2-{[6-(1-benzofuran-2-yl)-(5Sa)-5-{3-chloro-2-methyl-4-[2-(4-methylpiperazin-1-yl)ethoxy]phenyl}thieno[2,3-d]pyrimidin-4-yl]oxy}-3-phenylpropanoic acid], 2e-07 M.
Consider `Cc1c(-c2c(-c3ccnn3C)sc3ncnc(OC(Cc4ccccc4)C(=O)O)c23)ccc(OCCN2CCN(C)CC2)c1Cl` [Example 508, (2R)-2-{[(5Sa)-5-{3-chloro-2-methyl-4-[2-(4-methylpiperazin-1-yl)ethoxy]phenyl}-6-(1-methyl-1H-pyrazol-5-yl)thieno[2,3-d]pyrimidin-4-yl]oxy}-3-phenylpropanoic acid], for which the IC50 was determined as 3.7e-07 M.

Staying with this assay, now noted: partial inhibitors; @ 10 uM test compound.
In the case of `CCOC(=O)[C@@H](Cc1ccccc1OC)Oc1ncnc2sc(-c3ccc(F)cc3)c(-c3ccc(OCCN4CCN(C)CC4)c(Cl)c3C)c12` [Example 642, ethyl (2R)-2-{[(5Sa)-5-{3-chloro-2-methyl-4-[2-(4-methylpiperazin-1-yl)ethoxy]phenyl}-6-(4-fluorophenyl)thieno[2,3-d]pyrimidin-4-yl]oxy}-3-(2-methoxyphenyl)propanoate], the “percentage fluorescence polarisation inhibition, Mcl-1 FP” value stood at 11% @ 10 uM.
In the case of `CCOC(=O)[C@@H](Cc1ccccc1OCc1ccnc(OC)n1)Oc1ncnc2sc(-c3ccc(F)cc3)c(-c3ccc(OCCN4CCN(C)CC4)c(Cl)c3C)c12` [Example 626, ethyl (2R)-2-{[(5Sa)-5-{3-chloro-2-methyl-4-[2-(4-methylpiperazin-1-yl)ethoxy]phenyl}-6-(4-fluorophenyl)thieno[2,3-d]pyrimidin-4-yl]oxy}-3-{2-[(2-methoxypyrimidin-4-yl)methoxy]phenyl}propanoate], the “percentage fluorescence polarisation inhibition, Mcl-1 FP” value is 39.45% @ 10 uM.

Still in this assay, the particulars now being: test compound at 10 uM; Method 1, or Method 2 where the value is underlined (underlining not visible).
With `CCOC(=O)[C@@H](Cc1ccccc1OCc1ccnc(-c2ccccc2CO)n1)Oc1ncnc2sc(-c3ccc(F)cc3)c(-c3ccc(OCCN(C)C)c(Cl)c3C)c12` [Example 857, ethyl (2R)-2-{[(5Sa)-5-{3-chloro-4-[2-(dimethylamino)ethoxy]-2-methylphenyl}-6-(4-fluorophenyl)thieno[2,3-d]pyrimidin-4-yl]oxy}-3-[2-({2-[2-(hydroxymethyl)phenyl]pyrimidin-4-yl}methoxy)phenyl]propanoate], the “percentage fluorescence polarisation inhibition (Mcl-1 FP), partial inhibitors” value is reported as 77.85% @ 10 uM.
